Experiments:
[1] = tested on: thrombin; test: Simultaneous thrombin and plasmin generation (STP) assay, thrombin generation; format: biochemical, human; details: data not shown; for effect on thrombin generation at heparin 1 U/mL: heparin concentration 1 U/mL
Description: Reactant solution is prepared as described previously for the CloFAL assay developed in our laboratory. Briefly, lipidated recombinant human tissue factor (TF) (American Diagnostica Inc, Stamford, Conn.), non-lipidated recombinant human TF (American Diagnostica Inc), and recombinant two-chain tissue plasminogen activator (tPA) (American Diagnostica Inc) are added to a stock solution of Tris-buffered saline (TBS; 66 mM Tris, 130 mM NaCl, pH=7.0) containing 34 mM CaCl2, to a concentration of 10 pM of TF (made from 8.7 pM non-lipidated TF and 1.3 pM lipidated TF) and 900 ng/mL of tPA. Final concentrations are 5 pM TF and 450 ng/mL tPA after addition of reactant solution to plasma samples, as described below. The assay blank consists of TBS alone. The reactant solution is freshly prepared from stored stock solutions of TBS, aliquoted TF, and aliquoted tPA just prior to assay. Final concentrations of TF and tPA ranging from 0-10 pM and 0-900 ng/mL, respectively, were investigated during assay development, with ultimate concentrations of these reagents (as well as ratio of lipidated to non-lipidated TF) selected based upon empiric experiments designed to optimize precision and analytical sensitivity to pathologically and physiologically altered states of coagulation and fibrinolysis, as previously performed with the CloFAL assay
Two fluorometric substrates were used for the detection of the key enzymes, thrombin and plasmin. […]
For each patient sample to be analyzed, 90 μL of reactant solution was added simultaneously to each well in a flat-bottom, black, 96 well Costar assay plate (Fisher Scientific, Santa Clara, Calif.) using a multi-tip automated pipette. […] The plate was then placed into the fluorescent spectrophotometer (Multi-Mode Microplate Reader Synergy 2, Bio-Tek Instruments, Winooski, Vt.) where it was pre-warmed at 37 ° C. for three minutes. […] The plate was then drawn back into the fluorescent spectrophotometer where the sample is initially mixed for five seconds followed by fluorescent intensity measurements taken from each well every 45 seconds for four hours at a fluorescent emission of […] (as determined by the chosen fluorescent substrates). […] The kinetic fluorometric intensity data were exported to Microsoft Excel for additional data analyses in order to generate the aforementioned calculated parameters from the raw data. […]

[2] = tested on: plasmin; test: Simultaneous thrombin and plasmin generation (STP) assay, plasmin generation; format: biochemical, human; details: data not shown; for effect on plasmin generation at heparin 1 U/mL: heparin concentration 1 U/mL
[3] = normal plasma, corn trypsin inhibitor added to citrate whole blood collection tubes, relative to its absence

Molecule | STP findings (thrombin generation) with contact pathway inhibition [1, 3] | STP findings (plasmin generation) with contact pathway inhibition [2, 3] | effect on thrombin generation at heparin 1 U/mL [1] | effect on plasmin generation at heparin 1 U/mL [2] | thrombin generation capacity, response to exogenous TF ([1]; in vitro)
corn trypsin inhibitor | did not alter STP findings | did not alter STP findings |  |  | 
porcine unfractionated heparin sodium |  |  | ablation | ablation | 
dalteparin |  |  | ablation | ablation | 
TF: recombinant human tissue factor, lipidated and non-lipidated, initiates coagulation (protein, UniProt P13726 33-295, looked up, lipidated and non-lipidated, recombinant human tissue factor, lipidated and non-lipidated, initiates coagulation) Tissue factor: SGTTNTVAAYNLTWKSTNFKTILEWEPKPVNQVYTVQISTKSGDWKSKCFYTTDTECDLTDEIVKDVKQTYLARVFSYPAGNVESTGSAGEPLYENSPEFTPYLETNLGQPTIQSFEQVGTKVNVTVEDERTLVRRNNTFLSLRDVFGKDLIYTLYYWKSSSSGKKTAKTNTNEFLIDVDKGENYCFSVQAVIPSRTVNRKSTDSPVECMGQEKGEFREIFYIIGAVVFVVIILVIILAISLHKCRKAGVGQSWKENSPLNVS |  |  |  |  | concentration-responsiveness
